Structures can show the parent of a compound that is named as a salt.
Legend:
human recombinant FGFR1 = human recombinant FGFR1 (Homo sapiens, UniProt P11362); assay: FGFR family enzymatic activity assay (Caliper-based kinase assay), FGFR1; assay type: biochemical; conditions: FGFR1 0.5 nM, ATP 100 μM, peptide substrate 1 μM, room temperature 3 h
Source text: (§1) A Caliper-based kinase assay (Caliper Life Sciences, Hopkinton, Mass.) was used to measure inhibition of FGFR family (FGFR1, FGFR2, FGFR3, FGFR4) kinase activity of a compound of Formula (I′) or (I). […] This value is presented as the IC50.

human recombinant FGFR2 = human recombinant FGFR2 (Homo sapiens, UniProt P21802); assay: FGFR family enzymatic activity assay (Caliper-based kinase assay), FGFR2; assay type: biochemical; conditions: FGFR2 0.1 nM, ATP 75 μM, peptide substrate 1 μM, room temperature 3 h
Chain of human recombinant FGFR2 (P21802 22-821): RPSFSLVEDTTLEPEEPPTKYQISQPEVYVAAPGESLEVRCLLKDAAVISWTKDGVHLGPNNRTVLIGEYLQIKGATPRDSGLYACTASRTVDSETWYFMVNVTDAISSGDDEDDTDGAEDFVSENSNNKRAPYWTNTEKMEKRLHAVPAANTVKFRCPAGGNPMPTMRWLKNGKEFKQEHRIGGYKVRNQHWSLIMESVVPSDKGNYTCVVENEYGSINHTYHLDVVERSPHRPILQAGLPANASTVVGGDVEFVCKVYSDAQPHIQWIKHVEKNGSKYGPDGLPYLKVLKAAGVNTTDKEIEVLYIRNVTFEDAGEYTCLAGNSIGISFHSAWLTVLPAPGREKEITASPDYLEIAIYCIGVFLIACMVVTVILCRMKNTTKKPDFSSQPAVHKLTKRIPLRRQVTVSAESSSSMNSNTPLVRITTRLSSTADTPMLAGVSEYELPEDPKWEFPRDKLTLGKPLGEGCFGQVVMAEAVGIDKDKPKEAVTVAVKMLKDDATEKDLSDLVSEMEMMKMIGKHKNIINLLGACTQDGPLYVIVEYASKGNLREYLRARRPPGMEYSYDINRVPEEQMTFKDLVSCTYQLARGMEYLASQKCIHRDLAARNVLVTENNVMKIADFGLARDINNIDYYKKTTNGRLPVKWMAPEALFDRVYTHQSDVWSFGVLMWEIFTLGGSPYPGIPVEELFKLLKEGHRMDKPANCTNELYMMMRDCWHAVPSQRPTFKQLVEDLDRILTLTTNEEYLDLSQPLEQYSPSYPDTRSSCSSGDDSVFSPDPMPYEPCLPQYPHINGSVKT
Source text: as §1

human recombinant FGFR3 = human recombinant FGFR3 (Homo sapiens, UniProt P22607); assay: FGFR family enzymatic activity assay (Caliper-based kinase assay), FGFR3; assay type: biochemical; conditions: FGFR3 0.9 nM, ATP 120 μM, peptide substrate 1 μM, room temperature 3 h
Chain of human recombinant FGFR3 (P22607 23-806): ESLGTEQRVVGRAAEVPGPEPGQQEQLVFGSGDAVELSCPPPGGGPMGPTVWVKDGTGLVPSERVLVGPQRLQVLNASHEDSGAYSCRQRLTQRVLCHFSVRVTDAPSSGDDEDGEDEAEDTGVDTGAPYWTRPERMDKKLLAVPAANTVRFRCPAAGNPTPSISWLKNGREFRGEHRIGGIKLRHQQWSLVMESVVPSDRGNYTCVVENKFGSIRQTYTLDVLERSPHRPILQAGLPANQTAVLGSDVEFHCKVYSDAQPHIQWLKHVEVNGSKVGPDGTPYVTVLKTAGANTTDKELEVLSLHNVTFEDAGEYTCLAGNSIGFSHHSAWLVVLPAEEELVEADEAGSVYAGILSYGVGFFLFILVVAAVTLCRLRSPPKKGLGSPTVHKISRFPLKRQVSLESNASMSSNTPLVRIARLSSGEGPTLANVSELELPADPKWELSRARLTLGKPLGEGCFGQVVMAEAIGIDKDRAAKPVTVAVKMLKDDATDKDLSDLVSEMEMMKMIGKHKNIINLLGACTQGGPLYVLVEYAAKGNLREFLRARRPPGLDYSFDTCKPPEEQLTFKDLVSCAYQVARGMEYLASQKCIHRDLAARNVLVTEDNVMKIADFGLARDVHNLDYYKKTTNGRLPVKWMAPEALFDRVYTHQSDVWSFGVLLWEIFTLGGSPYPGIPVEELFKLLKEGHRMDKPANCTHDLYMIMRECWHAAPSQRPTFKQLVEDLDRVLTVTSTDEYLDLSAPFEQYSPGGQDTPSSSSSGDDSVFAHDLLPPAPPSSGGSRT
Source text: as §1

human recombinant FGFR4 = human recombinant FGFR4 (Homo sapiens, UniProt P22455); assay: FGFR family enzymatic activity assay (Caliper-based kinase assay), FGFR4; assay type: biochemical; conditions: FGFR4 2 nM, ATP 250 μM, peptide substrate 1 μM, room temperature 3 h
Chain of human recombinant FGFR4 (P22455 22-802): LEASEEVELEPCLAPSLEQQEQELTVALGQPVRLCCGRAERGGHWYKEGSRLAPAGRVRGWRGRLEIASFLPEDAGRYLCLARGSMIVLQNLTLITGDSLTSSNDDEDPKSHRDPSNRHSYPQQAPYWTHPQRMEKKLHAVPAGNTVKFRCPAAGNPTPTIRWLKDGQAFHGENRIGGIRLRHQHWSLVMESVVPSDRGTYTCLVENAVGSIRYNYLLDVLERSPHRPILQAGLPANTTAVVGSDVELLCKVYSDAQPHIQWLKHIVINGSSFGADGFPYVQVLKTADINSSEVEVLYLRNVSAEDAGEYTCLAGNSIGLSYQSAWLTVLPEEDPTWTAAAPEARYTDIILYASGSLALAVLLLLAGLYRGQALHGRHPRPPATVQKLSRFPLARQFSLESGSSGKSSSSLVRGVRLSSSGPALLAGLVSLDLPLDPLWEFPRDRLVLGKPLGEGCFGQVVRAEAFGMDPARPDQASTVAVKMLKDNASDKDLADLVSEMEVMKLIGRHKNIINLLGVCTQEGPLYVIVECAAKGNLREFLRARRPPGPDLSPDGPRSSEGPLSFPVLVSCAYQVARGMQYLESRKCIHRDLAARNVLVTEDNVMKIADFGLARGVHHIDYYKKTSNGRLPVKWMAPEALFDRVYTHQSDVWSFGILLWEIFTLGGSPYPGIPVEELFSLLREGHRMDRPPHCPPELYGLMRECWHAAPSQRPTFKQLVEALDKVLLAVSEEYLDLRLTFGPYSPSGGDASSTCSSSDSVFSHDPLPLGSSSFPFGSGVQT
Source text: as §1

SNU-16 cells = assay: Inhibition of FGFR2-dependent cell growth (Cell-titer Glo); assay type: cell-based; conditions: Homo sapiens, SNU16 cells, 72 hrs incubation, cell viability by Cell-titer Glo
Experimental: The cell-based effects of FGFR inhibitors were determined by measuring inhibition of FGFR-dependent cell line growth. […] Percent inhibition of cell growth was calculated as a percentage of untreated cell viability. The percent inhibition was plotted as a function of log compound concentration. The IC50 was then calculated for each compound using Prism software from GraphPad.

Chain of human recombinant FGFR1 (P11362 22-822): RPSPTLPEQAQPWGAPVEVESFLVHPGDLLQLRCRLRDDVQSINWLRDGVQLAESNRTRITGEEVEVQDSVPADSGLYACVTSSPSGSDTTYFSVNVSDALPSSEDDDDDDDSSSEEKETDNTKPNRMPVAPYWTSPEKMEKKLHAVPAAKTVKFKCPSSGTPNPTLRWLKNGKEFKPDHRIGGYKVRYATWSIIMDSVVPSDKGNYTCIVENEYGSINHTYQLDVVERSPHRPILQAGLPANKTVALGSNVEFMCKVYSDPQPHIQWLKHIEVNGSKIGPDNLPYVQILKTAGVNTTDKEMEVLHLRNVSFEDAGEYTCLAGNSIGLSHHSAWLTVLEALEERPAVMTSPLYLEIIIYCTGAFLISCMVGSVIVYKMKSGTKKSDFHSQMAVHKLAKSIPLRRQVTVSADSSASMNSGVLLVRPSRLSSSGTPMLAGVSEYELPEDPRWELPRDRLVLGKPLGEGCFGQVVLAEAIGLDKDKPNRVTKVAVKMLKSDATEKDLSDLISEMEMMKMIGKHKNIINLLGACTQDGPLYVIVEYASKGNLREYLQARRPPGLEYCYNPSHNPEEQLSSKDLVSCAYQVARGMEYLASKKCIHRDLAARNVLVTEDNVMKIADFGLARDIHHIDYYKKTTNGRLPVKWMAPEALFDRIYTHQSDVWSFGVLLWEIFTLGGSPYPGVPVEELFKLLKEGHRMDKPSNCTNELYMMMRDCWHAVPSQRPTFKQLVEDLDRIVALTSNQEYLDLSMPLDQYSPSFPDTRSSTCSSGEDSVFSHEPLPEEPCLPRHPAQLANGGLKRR

C=CC(=O)Nc1ccc(CCn2c(=O)c(-c3cc(OC)cc(OC)c3Cl)cc3cnc(NC(C)(C)CO)nc32)cc1 [Example 61, N-(4-(2-(6-(2-chloro-3,5-dimethoxyphenyl)-2-((1-hydroxy-2-methylpropan-2-yl)-amino)-7-oxopyrido[2,3-d]pyrimidin-8(7H)-yl)ethyl)phenyl)acrylamide]
IC50 (human recombinant FGFR1): 1.5 nM | IC50 (human recombinant FGFR2): 3.4 nM | IC50 (human recombinant FGFR3): 9.2 nM | IC50 (human recombinant FGFR4): 64.4 nM | IC50 (SNU-16 cells): 6.8 nM

C=CC(=O)Nc1ccc(CCn2c(=O)c(-c3c(Cl)c(OC)cc(OC)c3Cl)cc3cnc(NCCN4CCOCC4)nc32)nc1 [Example 51, N-(6-(2-(6-(2,6-dichloro-3,5-dimethoxyphenyl)-2-(2-morpholinoethylamino)-7-oxopyrido[2,3-d]pyrimidin-8(7H)-yl)ethyl)pyridin-3-yl)acrylamide]
IC50 (human recombinant FGFR1): 1.8 nM | IC50 (human recombinant FGFR2): 4.2 nM | IC50 (human recombinant FGFR3): 5.4 nM | IC50 (human recombinant FGFR4): 12.8 nM | IC50 (SNU-16 cells): 2.4 nM

C=CC(=O)Nc1ccc(CCn2c(=O)c(-c3c(Cl)c(OC)cc(OC)c3Cl)cc3cnc(NCC(C)(C)O)nc32)cc1 [Example 64, N-(4-(2-(6-(2,6-dichloro-3,5-dimethoxyphenyl)-2-((2-hydroxy-2-methylpropyl)-amino)-7-oxopyrido[2,3-d]pyrimidin-8(7H)-yl)ethyl)phenyl)acrylamide]
IC50 (human recombinant FGFR1): 0.5 nM | IC50 (human recombinant FGFR2): 2.2 nM | IC50 (human recombinant FGFR3): 5.5 nM | IC50 (human recombinant FGFR4): 19.9 nM | IC50 (SNU-16 cells): 3.2 nM

C=CC(=O)Nc1ccc(CCn2c(=O)c(-c3cc(OC)cc(OC)c3Cl)cc3cnc(NCCN4CCN(CC(C)(C)O)CC4)nc32)cc1 [Example 68, N-(4-(2-(6-(2-chloro-3,5-dimethoxyphenyl)-2-((2-(4-(2-hydroxy-2-methylpropyl)-piperazin-1-yl)ethyl)amino)-7-oxopyrido[2,3-d]pyrimidin-8(7H)-yl)ethyl)phenyl)acrylamide]
IC50 (human recombinant FGFR1): 0.7 nM | IC50 (human recombinant FGFR2): 1.6 nM | IC50 (human recombinant FGFR3): 8.1 nM | IC50 (human recombinant FGFR4): 53.8 nM | IC50 (SNU-16 cells): 3.1 nM

C=CC(=O)Nc1ccc(CCn2c(=O)c(-c3cc(OC)cc(OC)c3Cl)cc3cnc(NCC4CCN(C)CC4)nc32)cc1 [Example 71, N-(4-(2-(6-(2-chloro-3,5-dimethoxyphenyl)-2-(((1-methylpiperidin-4-yl)methyl)-amino)-7-oxopyrido[2,3-d]pyrimidin-8(7H)-yl)ethyl)phenyl)acrylamide]
IC50 (human recombinant FGFR1): 1 nM | IC50 (human recombinant FGFR2): 1.3 nM | IC50 (human recombinant FGFR3): 5.9 nM | IC50 (human recombinant FGFR4): 95.8 nM | IC50 (SNU-16 cells): 4.9 nM

C=CC(=O)Nc1ccc(CCn2c(=O)c(-c3c(Cl)c(OC)cc(OC)c3Cl)cc3cnc(NC)nc32)cc1 [Example 4, N-(4-(2-(6-(2,6-dichloro-3,5-dimethoxyphenyl)-2-(methylamino)-7-oxopyrido[2,3-d]pyrimidin-8(7H)-yl)ethyl)phenyl)acrylamide]
IC50 (human recombinant FGFR1): 1.3 nM | IC50 (human recombinant FGFR2): 1.6 nM | IC50 (human recombinant FGFR3): 3.1 nM | IC50 (human recombinant FGFR4): 10.4 nM | IC50 (SNU-16 cells): 1.4 nM

C=CC(=O)Nc1ccc(CCn2c(=O)c(-c3c(Cl)c(OC)cc(OC)c3Cl)cc3cnc(NCCO)nc32)cc1 [Example 65, N-(4-(2-(6-(2,6-dichloro-3,5-dimethoxyphenyl)-2-((2-hydroxyethyl)amino)-7-oxopyrido[2,3-d]pyrimidin-8(7H)-yl)ethyl)phenyl)acrylamide]
IC50 (human recombinant FGFR1): 0.6 nM | IC50 (human recombinant FGFR2): 1.7 nM | IC50 (human recombinant FGFR3): 4.6 nM | IC50 (human recombinant FGFR4): 13.8 nM | IC50 (SNU-16 cells): 3 nM

C=CC(=O)Nc1ccc(CCn2c(=O)c(-c3c(Cl)c(OC)cc(OC)c3Cl)cc3cnc(NCCCCN(CC)CC)nc32)cc1 [Example 5, N-(4-(2-(6-(2,6-dichloro-3,5-dimethoxyphenyl)-2-(4-(diethylamino)butylamino)-7-oxopyrido[2,3-d]pyrimidin-8(7H)-yl)ethyl)phenyl)acrylamide hydrochloride]
IC50 (human recombinant FGFR1): 1.1 nM | IC50 (human recombinant FGFR2): 1.5 nM | IC50 (human recombinant FGFR3): 5.5 nM | IC50 (human recombinant FGFR4): 32.4 nM | IC50 (SNU-16 cells): 5.6 nM

C=CC(=O)Nc1ccc(CCn2c(=O)c(-c3c(Cl)c(OC)cc(OC)c3Cl)cc3cnc(NCC4CCN(C)CC4)nc32)cc1 [Example 75, N-(4-(2-(6-(2,6-dichloro-3,5-dimethoxyphenyl)-2-(((1-methylpiperidin-4-yl)methyl)-amino)-7-oxopyrido[2,3-d]pyrimidin-8(7H)-yl)ethyl)phenyl)acrylamide]
IC50 (human recombinant FGFR1): 0.4 nM | IC50 (human recombinant FGFR2): 0.6 nM | IC50 (human recombinant FGFR3): 3.3 nM | IC50 (human recombinant FGFR4): 14.7 nM | IC50 (SNU-16 cells): 2.2 nM

C=CC(=O)Nc1ccc(CCn2c(=O)c(-c3c(Cl)c(OC)cc(OC)c3Cl)cc3cnc(NC(CO)CO)nc32)cc1 [Example 76, N-(4-(2-(6-(2,6-dichloro-3,5-dimethoxyphenyl)-2-((1,3-dihydroxypropan-2-yl)-amino)-7-oxopyrido[2,3-d]pyrimidin-8(7H)-yl)ethyl)phenyl)acrylamide]
IC50 (human recombinant FGFR1): 0.8 nM | IC50 (human recombinant FGFR2): 1.6 nM | IC50 (human recombinant FGFR3): 6.7 nM | IC50 (human recombinant FGFR4): 9.6 nM | IC50 (SNU-16 cells): 7.4 nM

C=CC(=O)Nc1ccc(CCn2c(=O)c(-c3c(Cl)c(OC)cc(OC)c3Cl)cc3cnc(NCC(O)CO)nc32)cc1 (stereo not shown) [Example 63, N-(4-(2-(6-(2,6-dichloro-3,5-dimethoxyphenyl)-2-((2,3-dihydroxypropyl)amino)-7-oxopyrido[2,3-d]pyrimidin-8(7H)-yl)ethyl)phenyl)acrylamide]
IC50 (human recombinant FGFR1): 0.7 nM | IC50 (human recombinant FGFR2): 0.9 nM | IC50 (human recombinant FGFR3): 3.2 nM | IC50 (human recombinant FGFR4): 9.7 nM | IC50 (SNU-16 cells): 3.1 nM

C=CC(=O)Nc1ccc(CCn2c(=O)c(-c3cc(OC)cc(OC)c3F)cc3cnc(NCCN4CCOCC4)nc32)cc1 [Example 43, N-(4-(2-(6-(2-fluoro-3,5-dimethoxyphenyl)-2-((2-morpholinoethyl)amino)-7-oxopyrido[2,3-d]pyrimidin-8(7H)-yl)ethyl)phenyl)acrylamide]
IC50 (human recombinant FGFR1): 2 nM | IC50 (human recombinant FGFR2): 2.6 nM | IC50 (human recombinant FGFR3): 9.6 nM | IC50 (human recombinant FGFR4): 71 nM | IC50 (SNU-16 cells): 3.7 nM

C=CC(=O)Nc1ccc(CCn2c(=O)c(-c3cc(OC)cc(OC)c3Cl)cc3cnc(NCCN4CCOCC4)nc32)nc1 [Example 39, N-(6-(2-(6-(2-chloro-3,5-dimethoxyphenyl)-2-((2-morpholinoethyl)amino)-7-oxopyrido[2,3-d]pyrimidin-8(7H)-yl)ethyl)pyridin-3-yl)acrylamide]
IC50 (human recombinant FGFR1): 0.9 nM | IC50 (human recombinant FGFR2): 5.5 nM | IC50 (human recombinant FGFR3): 5.4 nM | IC50 (human recombinant FGFR4): 42 nM | IC50 (SNU-16 cells): 1.2 nM

C=CC(=O)Nc1ccc(CCn2c(=O)c(-c3c(Cl)c(OC)cc(OC)c3Cl)cc3cnc(NCCN4CCOCC4)nc32)cc1 [Example 44, N-(4-(2-(6-(2,6-dichloro-3,5-dimethoxyphenyl)-2-((2-morpholinoethyl)amino)-7-oxopyrido[2,3-d]pyrimidin-8(7H)-yl)ethyl)phenyl)acrylamide]
IC50 (human recombinant FGFR1): 1 nM | IC50 (human recombinant FGFR2): 2.5 nM | IC50 (human recombinant FGFR3): 4 nM | IC50 (human recombinant FGFR4): 14 nM | IC50 (SNU-16 cells): 3.1 nM

Source: patent US9630963B2, “Quinolone derivatives as fibroblast growth factor inhibitors” (Principia Biopharma, Inc., priority 2013, dated 2017)
